Reference: patent publication US20230085307A1, “PYRIDAZINONE COMPOUND AND HERBICIDE” (NISSAN CHEMICAL CORPORATION, priority 2019, published 2023)

Columns and labels:
lambsquarters [1] = experiment: Test Example 4: herbicidal effect by soil treatment (Table 19, symbol O); type: in vivo, lambsquarters (Chenopodium album); conditions: 96 g/ha
Outline: (§1)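 Scoring uses the grading scale of an earlier test, three weeks post-application. Treatment consists of spraying a diluted emulsion formulation across the surface of sterilized diluvial soil in which seeds are buried near 1.5 cm deep; boxes are kept in a greenhouse between 25° C. and 30° C.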

barnyard grass [2] = experiment: Test Example 5: herbicidal effect by foliage application, plastic box (Table 20, symbol H); type: in vivo, barnyard grass (Echinochloa crus-galli); conditions: foliage application, 96 g/ha, evaluated three weeks after application
Outline: (§2)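 Post-emergence foliar test in sterilized diluvial soil. Compound applied as water-diluted emulsion at a predetermined rate to 14-day-old plants; evaluation at three weeks.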

wild oat [3] = experiment: Test Example 4: herbicidal effect by soil treatment (Table 19, symbol I); type: in vivo, wild oat (Avena fatua); conditions: 96 g/ha
Outline: as §1

southern crabgrass [4] = experiment: Test Example 4: herbicidal effect by soil treatment (Table 19, symbol F); type: in vivo, southern crabgrass (Digitaria ciliaris); conditions: 96 g/ha
Outline: as §1

Italian ryegrass [5] = experiment: Test Example 5: herbicidal effect by foliage application, plastic box (Table 20, symbol K); type: in vivo, Italian ryegrass (Lolium multiflorum); conditions: foliage application, 96 g/ha, evaluated three weeks after application
Outline: as §2

redroot pigweed [6] = experiment: Test Example 5: herbicidal effect by foliage application, plastic box (Table 20, symbol N); type: in vivo, redroot pigweed (Amaranthus retroflexus); conditions: foliage application, 96 g/ha, evaluated three weeks after application
Outline: as §2

blackgrass [7] = experiment: Test Example 5: herbicidal effect by foliage application, plastic box (Table 20, symbol J); type: in vivo, blackgrass (Alopecurus myosuroides); conditions: foliage application, 96 g/ha, evaluated three weeks after application
Outline: as §2

lambsquarters [8] = experiment: Test Example 5: herbicidal effect by foliage application, plastic box (Table 20, symbol O); type: in vivo, lambsquarters (Chenopodium album); conditions: foliage application, 96 g/ha, evaluated three weeks after application
Outline: as §2

barnyard grass [9] = experiment: Test Example 4: herbicidal effect by soil treatment (Table 19, symbol H); type: in vivo, barnyard grass (Echinochloa crus-galli); conditions: 96 g/ha
Outline: as §1

Italian ryegrass [10] = experiment: Test Example 4: herbicidal effect by soil treatment (Table 19, symbol K); type: in vivo, Italian ryegrass (Lolium multiflorum); conditions: 96 g/ha
Outline: as §1

southern crabgrass [11] = experiment: Test Example 5: herbicidal effect by foliage application, plastic box (Table 20, symbol F); type: in vivo, southern crabgrass (Digitaria ciliaris); conditions: foliage application, 96 g/ha, evaluated three weeks after application
Outline: as §2

windgrass [12] = experiment: Test Example 5: herbicidal effect by foliage application, plastic box (Table 20, symbol L); type: in vivo, windgrass (Apera spica-venti); conditions: foliage application, 96 g/ha, evaluated three weeks after application
Outline: as §2

persian speedwell [13] = experiment: Test Example 5: herbicidal effect by foliage application, plastic box (Table 20, symbol R); type: in vivo, Persian speedwell (Veronica persica); conditions: foliage application, 96 g/ha, evaluated three weeks after application
Outline: as §2

blackgrass [14] = experiment: Test Example 4: herbicidal effect by soil treatment (Table 19, symbol J); type: in vivo, blackgrass (Alopecurus myosuroides); conditions: 96 g/ha
Outline: as §1

barnyard grass [15] = experiment: Test Example 3: herbicidal effect by foliage application, Wagner pot (Table 18, symbol H); type: in vivo, barnyard grass (Echinochloa crus-galli); conditions: 96 g/ha
Outline: (§3)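 Plants were sown in alluvial soil held under 0.1–0.5 cm standing water and grown 14 days in a greenhouse at 25–30 °C. An emulsifiable formulation, water-diluted to the set dose, was then sprayed onto the foliage, and effects were scored three weeks later using previously defined criteria.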

green foxtail [16] = experiment: Test Example 5: herbicidal effect by foliage application, plastic box (Table 20, symbol G); type: in vivo, green foxtail (Setaria viridis); conditions: foliage application, 96 g/ha, evaluated three weeks after application
Outline: as §2

persian speedwell [17] = experiment: Test Example 4: herbicidal effect by soil treatment (Table 19, symbol R); type: in vivo, Persian speedwell (Veronica persica); conditions: 96 g/ha
Outline: as §1

Chinese sprangletop = experiment: Test Example 3: herbicidal effect by foliage application, Wagner pot (Table 18, symbol D); type: in vivo, chinese sprangletop (Leptochloa chinensis); conditions: 96 g/ha
Outline: as §3

chickweed [18] = experiment: Test Example 4: herbicidal effect by soil treatment (Table 19, symbol P); type: in vivo, common chickweed (Stellaria media); conditions: 96 g/ha
Outline: as §1

chickweed [19] = experiment: Test Example 5: herbicidal effect by foliage application, plastic box (Table 20, symbol P); type: in vivo, common chickweed (Stellaria media); conditions: foliage application, 96 g/ha, evaluated three weeks after application
Outline: as §2

green foxtail [20] = experiment: Test Example 4: herbicidal effect by soil treatment (Table 19, symbol G); type: in vivo, green foxtail (Setaria viridis); conditions: 96 g/ha
Outline: as §1

redroot pigweed [21] = experiment: Test Example 4: herbicidal effect by soil treatment (Table 19, symbol N); type: in vivo, redroot pigweed (Amaranthus retroflexus); conditions: 96 g/ha
Outline: as §1

wild oat [22] = experiment: Test Example 5: herbicidal effect by foliage application, plastic box (Table 20, symbol I); type: in vivo, wild oat (Avena fatua); conditions: foliage application, 96 g/ha, evaluated three weeks after application
Outline: as §2

windgrass [23] = experiment: Test Example 4: herbicidal effect by soil treatment (Table 19, symbol L); type: in vivo, windgrass (Apera spica-venti); conditions: 96 g/ha
Outline: as §1

velvetleaf [24] = experiment: Test Example 4: herbicidal effect by soil treatment (Table 19, symbol M); type: in vivo, velvetleaf (Abutilon theophrasti); conditions: 96 g/ha
Outline: as §1

velvetleaf [25] = experiment: Test Example 5: herbicidal effect by foliage application, plastic box (Table 20, symbol M); type: in vivo, velvetleaf (Abutilon theophrasti); conditions: foliage application, 96 g/ha, evaluated three weeks after application
Outline: as §2

With Cc1nn(C)c(=O)c(-c2c(-c3ccccc3)sc3ccc(Cl)cc23)c1O [2-094] the “herbicidal effect rating, O: lambsquarters” value (lambsquarters [1]) was 3 (Herbicidal rate of 40% or more and less than 70%), the “herbicidal effect on H: barnyard grass” value (barnyard grass [2]) was 0 (Herbicidal rate of 5% or less (almost no effect)) and the “herbicidal effect rating, I: wild oat” value (wild oat [3]) was 0 (Herbicidal rate of 5% or less (almost no effect)). The “herbicidal effect rating, F: southern crabgrass” value (southern crabgrass [4]) was 0 (Herbicidal rate of 5% or less (almost no effect)), the “herbicidal effect on K: Italian ryegrass” value (Italian ryegrass [5]) was 2 (Herbicidal rate of 20% or more and less than 40%) and the “herbicidal effect on N: redroot pigweed” value (redroot pigweed [6]) was 3 (Herbicidal rate of 40% or more and less than 70%). For the same molecule, the “herbicidal effect on J: blackgrass” value (blackgrass [7]) was 0 (Herbicidal rate of 5% or less (almost no effect)), the “herbicidal effect on O: lambsquarters” value (lambsquarters [8]) was 2 (Herbicidal rate of 20% or more and less than 40%) and the “herbicidal effect rating, H: barnyard grass” value (barnyard grass [9]) was 0 (Herbicidal rate of 5% or less (almost no effect)). The “herbicidal effect rating, K: Italian ryegrass” value (Italian ryegrass [10]) was 0 (Herbicidal rate of 5% or less (almost no effect)), the “herbicidal effect on F: southern crabgrass” value (southern crabgrass [11]) was 0 (Herbicidal rate of 5% or less (almost no effect)) and the “herbicidal effect on L: windgrass” value (windgrass [12]) was 0 (Herbicidal rate of 5% or less (almost no effect)). The “herbicidal effect on R: persian speedwell” value (persian speedwell [13]) was 1 (Herbicidal rate of 5% or more and less than 20%), the “herbicidal effect rating, J: blackgrass” value (blackgrass [14]) was 0 (Herbicidal rate of 5% or less (almost no effect)) and the “herbicidal effect on H (barnyard grass), rating 0-5” value (barnyard grass [15]) was 2 (Herbicidal rate of 20% or more and less than 40%). The “herbicidal effect on G: green foxtail” value (green foxtail [16]) was 0 (Herbicidal rate of 5% or less (almost no effect)), the “herbicidal effect rating, R: persian speedwell” value (persian speedwell [17]) was 0 (Herbicidal rate of 5% or less (almost no effect)) and the “herbicidal effect on D (Chinese sprangletop), rating 0-5” value (Chinese sprangletop) was 0 (Herbicidal rate of 5% or less (almost no effect)). For the same molecule, the “herbicidal effect rating, P: chickweed” value (chickweed [18]) was 0 (Herbicidal rate of 5% or less (almost no effect)), the “herbicidal effect on P: chickweed” value (chickweed [19]) was 5 (Herbicidal rate of 90% or more (almost completely withered)) and the “herbicidal effect rating, G: green foxtail” value (green foxtail [20]) was 0 (Herbicidal rate of 5% or less (almost no effect)). For the same molecule, the “herbicidal effect rating, N: redroot pigweed” value (redroot pigweed [21]) was 5 (Herbicidal rate of 90% or more (almost completely withered)), the “herbicidal effect on I: wild oat” value (wild oat [22]) was 0 (Herbicidal rate of 5% or less (almost no effect)) and the “herbicidal effect rating, L: windgrass” value (windgrass [23]) was 0 (Herbicidal rate of 5% or less (almost no effect)). The “herbicidal effect rating, M: velvetleaf” value (velvetleaf [24]) was 0 (Herbicidal rate of 5% or less (almost no effect)) and the “herbicidal effect on M: velvetleaf” value (velvetleaf [25]) was 3 (Herbicidal rate of 40% or more and less than 70%).
